In ChEMBL document CHEMBL1201861, “Genomics of Drug Sensitity in Cancer screening data, Wellcome Trust Sanger Institute”:

Tests used:
DBTRG-05MG = assay: cells; assay type: functional, cell-based; conditions: Homo sapiens;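 note: cell viability assay measuring growth inhibition of human DBTRG-05MG cells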
Description: SANGER: Inhibition of human DBTRG-05MG cell growth in a cell viability assay.

HCC 2998 = assay: cells; assay type: functional, cell-based; conditions: Homo sapiens;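 note: growth inhibition of human HCC2998 cells, measured with a cell viability read-out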
Description: SANGER: Inhibition of human HCC2998 cell growth in a cell viability assay.

HO-1-N-1 = assay: cells; assay type: functional, cell-based; conditions: Homo sapiens;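 note: growth inhibition of human HO-1-N-1 cells, read out with a cell viability assay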
Description: SANGER: Inhibition of human HO-1-N-1 cell growth in a cell viability assay.

HSC-2 = assay: cells; assay type: functional, cell-based; conditions: Homo sapiens;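 note: growth inhibition of human HSC-2 cells, read out by a cell viability assay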
Description: SANGER: Inhibition of human HSC-2 cell growth in a cell viability assay.

Huh-7 = assay: cells; assay type: functional, cell-based; conditions: Homo sapiens;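 note: HuH-7 cell growth inhibition, read out with a cell viability assay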
Description: SANGER: Inhibition of human HuH-7 cell growth in a cell viability assay.

HuP-T4 = assay: cells; assay type: functional, cell-based; conditions: Homo sapiens;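 note: cell viability assay measuring how much HuP-T4 cell growth is inhibited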
Description: SANGER: Inhibition of human HuP-T4 cell growth in a cell viability assay.

KU-19-19 = assay: cells; assay type: functional, cell-based; conditions: Homo sapiens
Description: SANGER: Inhibition of human KU-19-19 cell growth in a cell viability assay.

KYSE-410 = assay: cells; assay type: functional, cell-based; conditions: Homo sapiens;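 note: growth inhibition of KYSE-410 cells, measured through a cell viability readout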
Description: SANGER: Inhibition of human KYSE-410 cell growth in a cell viability assay.

MDA-MB-231 = assay: cells; assay type: functional, cell-based; conditions: Homo sapiens
Description: SANGER: Inhibition of human MDA-MB-231 cell growth in a cell viability assay.

MKN-7 = assay: cells; assay type: functional, cell-based; conditions: Homo sapiens;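 note: growth inhibition of MKN-7 cells, read out with a cell viability assay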
Description: SANGER: Inhibition of human MKN7 cell growth in a cell viability assay.

MeWo = assay: cells; assay type: functional, cell-based; conditions: Homo sapiens;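 note: growth inhibition of MeWo cells, determined by a cell viability readout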
Description: SANGER: Inhibition of human Mewo cell growth in a cell viability assay.

NCI-H1437 = assay: cells; assay type: functional, cell-based; conditions: Homo sapiens;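 note: growth inhibition of human NCI-H1437 cells, read out by a cell viability assay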
Description: SANGER: Inhibition of human NCI-H1437 cell growth in a cell viability assay.

NCI-H1755 = assay: cells; assay type: functional, cell-based; conditions: Homo sapiens;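 note: cell viability readout used to measure growth inhibition of NCI-H1755 cells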
Description: SANGER: Inhibition of human NCI-H1755 cell growth in a cell viability assay.

NCI-H522 = assay: cells; assay type: functional, cell-based; conditions: Homo sapiens;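 note: cell viability assay measuring growth inhibition of human NCI-H522 cells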
Description: SANGER: Inhibition of human NCI-H522 cell growth in a cell viability assay.

NUGC-3 = assay: cells; assay type: functional, cell-based; conditions: Homo sapiens;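 note: growth inhibition of human NUGC-3 cells, read out with a cell viability assay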
Description: SANGER: Inhibition of human NUGC-3 cell growth in a cell viability assay.

OAW-28 = assay: cells; assay type: functional, cell-based; conditions: Homo sapiens;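 note: growth inhibition of OAW-28 cells, read out with a cell viability assay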
Description: SANGER: Inhibition of human OAW-28 cell growth in a cell viability assay.

OE19 = assay: cells; assay type: functional, cell-based; conditions: Homo sapiens;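 note: growth inhibition of OE19 cells, measured through a cell viability read-out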
Description: SANGER: Inhibition of human OE19 cell growth in a cell viability assay.

PC-3 = assay: cells; assay type: functional, cell-based; conditions: Homo sapiens;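 note: cell viability assay measuring growth inhibition of PC-3 cells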
Description: SANGER: Inhibition of human PC-3 cell growth in a cell viability assay.

RD = assay: cells; assay type: functional, cell-based; conditions: Homo sapiens
Description: SANGER: Inhibition of human RD cell growth in a cell viability assay.

RMG-I = assay: cells; assay type: functional, cell-based; conditions: Homo sapiens;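 note: growth inhibition of human RMG-I cells, read out with a cell viability assay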
Description: SANGER: Inhibition of human RMG-I cell growth in a cell viability assay.

RPMI-2650 = assay: cells; assay type: functional, cell-based; conditions: Homo sapiens
Description: SANGER: Inhibition of human RPMI-2650 cell growth in a cell viability assay.

SK-N-AS = assay: cells; assay type: functional, cell-based; conditions: Homo sapiens;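 note: growth inhibition of human SK-N-AS cells, measured with a cell viability assay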
Description: SANGER: Inhibition of human SK-N-AS cell growth in a cell viability assay.

SW1417 = assay: cells; assay type: functional, cell-based; conditions: Homo sapiens;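 note: growth inhibition of human SW1417 cells, read out with a cell viability assay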
Description: SANGER: Inhibition of human SW1417 cell growth in a cell viability assay.

SW1990 = assay: cells; assay type: functional, cell-based; conditions: Homo sapiens
Description: SANGER: Inhibition of human SW1990 cell growth in a cell viability assay.

SW626 = assay: cells; assay type: functional, cell-based; conditions: Homo sapiens;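 note: growth inhibition of SW626 cells, measured with a cell viability assay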
Description: SANGER: Inhibition of human SW626 cell growth in a cell viability assay.

SW780 = assay: cells; assay type: functional, cell-based; conditions: Homo sapiens;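 note: growth inhibition of the cells, read out with a cell viability assay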
Description: SANGER: Inhibition of human SW780 cell growth in a cell viability assay.

T84 = assay: cells; assay type: functional, cell-based; conditions: Homo sapiens;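 note: growth inhibition measured with a cell viability readout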
Description: SANGER: Inhibition of human T84 cell growth in a cell viability assay.

769-P = assay: cells; assay type: functional, cell-based; conditions: Homo sapiens
Description: SANGER: Inhibition of human 769-P cell growth in a cell viability assay.

A2780 = assay: cells; assay type: functional, cell-based; conditions: Homo sapiens;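 note: growth inhibition of A2780 cells, read out with a cell viability assay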
Description: SANGER: Inhibition of human A2780 cell growth in a cell viability assay.

BEN = assay: cells; assay type: functional, cell-based; conditions: Homo sapiens;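 note: growth inhibition of the BEN cell line, read out with a cell viability assay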
Description: SANGER: Inhibition of human BEN cell growth in a cell viability assay.

BHT-101 = assay: cells; assay type: functional, cell-based; conditions: Homo sapiens
Description: SANGER: Inhibition of human BHT-101 cell growth in a cell viability assay.

BPH-1 = assay: cells; assay type: functional, cell-based; conditions: Homo sapiens;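 note: cell viability assay measuring growth inhibition of human BPH-1 cells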
Description: SANGER: Inhibition of human BPH-1 cell growth in a cell viability assay.

CAL-72 = assay: cells; assay type: functional, cell-based; conditions: Homo sapiens;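 note: cell viability assay measuring inhibition of proliferation in the CAL-72 cell line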
Description: SANGER: Inhibition of human CAL-72 cell growth in a cell viability assay.

TYK-nu = assay: cells; assay type: functional, cell-based; conditions: Homo sapiens;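 note: growth inhibition of human TYK-nu cells, read out by a cell viability assay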
Description: SANGER: Inhibition of human TYK-nu cell growth in a cell viability assay.

UMC-11 = assay: cells; assay type: functional, cell-based; conditions: Homo sapiens;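 note: growth inhibition of UMC-11 cells, read out with a cell viability assay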
Description: SANGER: Inhibition of human UMC-11 cell growth in a cell viability assay.

WM-115 = assay: cells; assay type: functional, cell-based; conditions: Homo sapiens
Description: SANGER: Inhibition of human WM-115 cell growth in a cell viability assay.

YKG-1 = assay: cells; assay type: functional, cell-based; conditions: Homo sapiens;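 note: cell growth inhibition, read out with a viability assay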
Description: SANGER: Inhibition of human YKG-1 cell growth in a cell viability assay.

COR-L279 = assay: SANGER: Inhibition of human COR-L279 cell growth in a cell viability assay.; assay type: functional, cell-based; conditions: Homo sapiens, COR-L279
ST486 = assay: SANGER: Inhibition of human ST486 cell growth in a cell viability assay.; assay type: functional, cell-based; conditions: Homo sapiens, ST486
SW837 = assay: cells; assay type: functional, cell-based; conditions: Homo sapiens;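 note: growth inhibition of SW837 cells, determined with a cell viability assay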
Description: SANGER: Inhibition of human SW837 cell growth in a cell viability assay.

DMS-79 = assay: cells; assay type: functional, cell-based, Homo sapiens; conditions: Homo sapiens, DMS-79
Description: SANGER: Inhibition of human DMS-79 cell growth in a cell viability assay.

GDM-1 = assay: cells; assay type: functional, cell-based, Homo sapiens; conditions: Homo sapiens, GDM-1; read-out: IC50;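 note: cell viability readout used to measure growth inhibition of human GDM-1 cells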
Description: SANGER: Inhibition of human GDM-1 cell growth in a cell viability assay.

K052 = assay: cells; assay type: functional, cell-based, Homo sapiens; conditions: Homo sapiens, K052;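 note: Read-out from a cell viability assay, IC50 reflecting suppression of K052 cell growth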
Description: SANGER: Inhibition of human K052 cell growth in a cell viability assay.

LC4-1 = assay: cells; assay type: functional, cell-based, Homo sapiens; conditions: Homo sapiens, LC4-1;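 note: growth inhibition of LC4-1 cells, read out with a cell viability assay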
Description: SANGER: Inhibition of human LC4-1 cell growth in a cell viability assay.

NALM-6 = assay: cells; assay type: functional, cell-based, Homo sapiens; conditions: Homo sapiens, NALM-6;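 note: growth inhibition of NALM-6 cells, read out with a cell viability assay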
Description: SANGER: Inhibition of human NALM-6 cell growth in a cell viability assay.

NCI-H1417 = assay: cells; assay type: functional, cell-based, Homo sapiens; conditions: Homo sapiens, NCI-H1417;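 note: human NCI-H1417 cells, growth inhibition determined with a cell viability readout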
Description: SANGER: Inhibition of human NCI-H1417 cell growth in a cell viability assay.

NCI-H1694 = assay: cells; assay type: functional, cell-based, Homo sapiens; conditions: Homo sapiens, NCI-H1694;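 note: cell viability assay measuring inhibition of growth in human NCI-H1694 cells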
Description: SANGER: Inhibition of human NCI-H1694 cell growth in a cell viability assay.

NCI-H187 = assay: cells; assay type: functional, cell-based, Homo sapiens; conditions: Homo sapiens, NCI-H187;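 note: growth inhibition of NCI-H187 cells, read out as cell viability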
Description: SANGER: Inhibition of human NCI-H187 cell growth in a cell viability assay.

NCI-H1882 = assay: cells; assay type: functional, cell-based, Homo sapiens; conditions: Homo sapiens, NCI-H1882;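 note: growth inhibition of the cell line, determined with a viability assay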
Description: SANGER: Inhibition of human NCI-H1882 cell growth in a cell viability assay.

NCI-H2141 = assay: cells; assay type: functional, cell-based, Homo sapiens; conditions: Homo sapiens, NCI-H2141;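 note: growth inhibition of human NCI-H2141 cells, read out with a cell viability assay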
Description: SANGER: Inhibition of human NCI-H2141 cell growth in a cell viability assay.

OPM-2 = assay: cells; assay type: functional, cell-based, Homo sapiens; conditions: Homo sapiens, OPM-2;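 note: growth of OPM-2 cells measured with a viability assay, IC50 for suppression of proliferation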
Description: SANGER: Inhibition of human OPM-2 cell growth in a cell viability assay.

P31-FUJ = assay: cells; assay type: functional, cell-based, Homo sapiens; conditions: Homo sapiens, P31-FUJ;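 note: growth inhibition of P31-FUJ cells, read out with a viability assay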
Description: SANGER: Inhibition of human P31-FUJ cell growth in a cell viability assay.

SK-MM-2 = assay: cells; assay type: functional, cell-based, Homo sapiens; conditions: Homo sapiens, SK-MM-2;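 note: growth inhibition of human SK-MM-2 cells, read out with a cell viability assay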
Description: SANGER: Inhibition of human SK-MM-2 cell growth in a cell viability assay.

SNU-C1 = assay: cells; assay type: functional, cell-based, Homo sapiens; conditions: Homo sapiens, SNU-C1;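 note: growth inhibition of SNU-C1 human cells, read out by a cell viability assay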
Description: SANGER: Inhibition of human SNU-C1 cell growth in a cell viability assay.

BC-3 = assay: cells; assay type: functional, cell-based, Homo sapiens; conditions: Homo sapiens, BC-3;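 note: cell viability assay measuring growth inhibition of human BC-3 cells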
Description: SANGER: Inhibition of human BC-3 cell growth in a cell viability assay.

TE-15 = assay: cells; assay type: functional, cell-based, Homo sapiens; conditions: Homo sapiens, TE-15;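 note: cell viability readout of growth inhibition in TE-15 cells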
Description: SANGER: Inhibition of human TE-15 cell growth in a cell viability assay.

YT = assay: cells; assay type: functional, cell-based, Homo sapiens; conditions: Homo sapiens, YT
Description: SANGER: Inhibition of human YT cell growth in a cell viability assay.

Measured: IC50

NC1(c2ccc(-c3nc4ccn5c(=O)[nH]nc5c4cc3-c3ccccc3)cc2)CCC1 [MK-2206]
3.09 µM: Huh-7
> 4 µM: DBTRG-05MG | HCC 2998 | HO-1-N-1 | HSC-2 | HuP-T4 | KU-19-19 | KYSE-410 | MDA-MB-231 | MKN-7 | MeWo | NCI-H1437 | NCI-H1755 | NCI-H522 | NUGC-3 | OE19 | PC-3 | RD | RPMI-2650 | SK-N-AS | SW1417 | SW1990 | SW626 | SW780 | T84 | 769-P | A2780 | BEN | BPH-1 | CAL-72 | TYK-nu | UMC-11 | WM-115 | YKG-1
2.16 µM: RMG-I
0.53 µM: BHT-101
2.3 µM: OAW-28

CO[C@@H]1[C@H](N(C)C(=O)c2ccccc2)C[C@H]2O[C@]1(C)n1c3ccccc3c3c4c(c5c6ccccc6n2c5c31)C(=O)NC4 [MIDOSTAURIN]
> 0.512 µM: COR-L279 | DBTRG-05MG | HO-1-N-1 | NCI-H1437 | PC-3 | BEN | UMC-11
0.0627 µM: NCI-H1755
0.349 µM: ST486

O=C(NCCCNc1nc(Nc2cccc(NC(=O)N3CCCC3)c2)ncc1I)c1cccs1 [BX-795]
1.97 µM: HO-1-N-1
4.82 µM: Huh-7
4.17 µM: PC-3
> 5 µM: DBTRG-05MG | HCC 2998 | HSC-2 | HuP-T4 | KU-19-19 | KYSE-410 | MDA-MB-231 | MKN-7 | MeWo | NCI-H522 | NUGC-3 | OAW-28 | OE19 | RD | RMG-I | RPMI-2650 | SK-N-AS | SW1417 | SW1990 | SW626 | SW837 | T84 | 769-P | A2780 | BEN
2.9 µM: UMC-11
2.77 µM: NCI-H1437
3.26 µM: SW780
1.77 µM: YKG-1
3.14 µM: BPH-1
3.88 µM: WM-115
2.54 µM: NCI-H1755
4.22 µM: CAL-72
1.58 µM: BHT-101
2.93 µM: TYK-nu

O=C1NC(=O)c2c1c(-c1ccccc1Cl)cc1[nH]c3ccc(O)cc3c21
> 2 µM: DBTRG-05MG | HCC 2998 | HSC-2 | Huh-7 | HuP-T4 | KU-19-19 | MDA-MB-231 | MKN-7 | MeWo | NCI-H1437 | NCI-H1755 | NCI-H522 | NUGC-3 | OAW-28 | OE19 | PC-3 | RD | RPMI-2650 | SW1417 | SW780 | SW837 | T84 | A2780 | BEN | BHT-101 | UMC-11 | WM-115 | YKG-1
1.81 µM: SK-N-AS
1.56 µM: KYSE-410
1.07 µM: BPH-1
1.82 µM: CAL-72
1.39 µM: HO-1-N-1
1.18 µM: SW1990
1.02 µM: 769-P

Cc1cc(N2CCOCC2)cc2[nH]c(-c3c(NC[C@@H](O)c4cccc(Cl)c4)cc[nH]c3=O)nc12
0.813 µM: TE-15
2.54 µM: SNU-C1
> 5.12 µM: COR-L279 | DMS-79 | GDM-1 | K052 | LC4-1 | NCI-H1417 | NCI-H1694 | NCI-H2141 | P31-FUJ | ST486 | YT
0.956 µM: NCI-H1882
2.97 µM: NALM-6
4.34 µM: BC-3
0.63 µM: SK-MM-2
2.34 µM: NCI-H187
0.525 µM: OPM-2

C=CC(=O)N1CCCC(Nc2nc(Nc3ccc(N(C)C(=O)CC)cc3)nc3[nH]cnc23)C1 (configuration not stated)
9.06 µM: BC-3
1.85 µM: TE-15
> 10.2 µM: COR-L279 | DMS-79 | GDM-1 | K052 | LC4-1 | NALM-6 | NCI-H1417 | NCI-H1694 | NCI-H187 | NCI-H1882 | NCI-H2141 | OPM-2 | P31-FUJ | SK-MM-2 | SNU-C1 | ST486 | YT

NC(=O)c1cccc(-c2cc(Nc3ccc(OC(F)(F)F)cc3)ncn2)c1
> 1.28 µM: COR-L279 | DMS-79 | GDM-1 | K052 | LC4-1 | NALM-6 | NCI-H1417 | NCI-H1694 | NCI-H187 | NCI-H1882 | NCI-H2141 | OPM-2 | P31-FUJ | SK-MM-2 | SNU-C1 | ST486 | BC-3 | TE-15 | YT

CN(C)CCOc1ccc(-c2nc(-c3ccncc3)c(-c3ccc4c(c3)CC/C4=N\O)[nH]2)cc1 [SB590885]
3.67 µM: Huh-7
1.63 µM: BHT-101
> 5 µM: HCC 2998 | HO-1-N-1 | HSC-2 | HuP-T4 | KU-19-19 | KYSE-410 | MDA-MB-231 | MKN-7 | MeWo | NCI-H1437 | NCI-H1755 | NCI-H522 | NUGC-3 | OAW-28 | OE19 | PC-3 | RD | RMG-I | RPMI-2650 | SK-N-AS | SW1417 | SW1990 | SW626 | SW780 | T84 | 769-P | A2780 | BEN | BPH-1 | CAL-72 | UMC-11 | YKG-1
3.53 µM: DBTRG-05MG
1.8 µM: TYK-nu
0.85 µM: WM-115

COc1ccc(N(C(=O)Oc2c(C)cccc2C)c2ccnc(Nc3ccc(N4CCN(C)CC4)cc3)n2)c(OC)c1
> 5.12 µM: COR-L279 | DMS-79 | GDM-1 | K052 | LC4-1 | NALM-6 | NCI-H1417 | NCI-H1694 | NCI-H187 | NCI-H1882 | NCI-H2141 | OPM-2 | P31-FUJ | SK-MM-2 | SNU-C1 | ST486 | BC-3 | YT
0.243 µM: TE-15
